pIC50: −log10 of the molar value.
How the values were obtained:
Type in all cases: functional, organism-based
[1] = system: Acinetobacter baumannii; test: Antibacterial activity against efflux pump lacking Acinetobacter baumannii assessed as inhibition of bacterial growth
[2] = system: Acinetobacter baumannii; test: Antibacterial activity against efflux pump lacking/recombinant OM pore producing Acinetobacter baumannii assessed as inhibition of bacterial growth
[3] = system: Acinetobacter baumannii; test: Antibacterial activity against recombinant OM pore producing Acinetobacter baumannii assessed as inhibition of bacterial growth
[4] = system: Acinetobacter baumannii; test: Antibacterial activity against wild type Acinetobacter baumannii assessed as inhibition of bacterial growth
[5] = system: Escherichia coli; test: Antibacterial activity against wild type Escherichia coli assessed as inhibition of bacterial growth
[6] = system: Escherichia coli; test: Antibacterial activity against recombinant OM pore producing Escherichia coli assessed as inhibition of bacterial growth
[7] = system: Escherichia coli; test: Antibacterial activity against efflux pump lacking Escherichia coli assessed as inhibition of bacterial growth
[8] = system: Escherichia coli; test: Antibacterial activity against efflux pump lacking/recombinant OM pore producing Escherichia coli assessed as inhibition of bacterial growth
[9] = system: Pseudomonas aeruginosa; test: Antibacterial activity against wild type Pseudomonas aeruginosa assessed as inhibition of bacterial growth
[10] = system: Pseudomonas aeruginosa; test: Antibacterial activity against recombinant OM pore producing Pseudomonas aeruginosa assessed as inhibition of bacterial growth
[11] = system: Pseudomonas aeruginosa; test: Antibacterial activity against efflux pump lacking Pseudomonas aeruginosa assessed as inhibition of bacterial growth
[12] = system: Pseudomonas aeruginosa; test: Antibacterial activity against efflux pump lacking/recombinant OM pore producing Pseudomonas aeruginosa assessed as inhibition of bacterial growth

SMILES	pIC50 [1]	pIC50 [2]	pIC50 [3]	pIC50 [4]	pIC50 [5]	pIC50 [6]	pIC50 [7]	pIC50 [8]	pIC50 [9]	pIC50 [10]	pIC50 [11]	pIC50 [12]
O=C1O[C@@H](CO)CN1c1ccc(-c2ccccc2)c(F)c1	5.64	5.72	5.26	4.74	4.74	5.70	6.40	6.52	< 4.00	4.88	5.64	5.85
C[n+]1ccc2ccc(-c3ccc(N4C[C@H](CO)OC4=O)cc3F)cc2c1	4.31	5.03	4.56	< 4.00	< 4.00	4.68	5.25	5.02	< 4.00	< 4.00	< 4.00	< 4.00
CC(C)(C)OC(=O)N[C@@H](Cc1cccc(-c2ccc(N3C[C@H](CO)OC3=O)cc2F)c1)C(=O)O	< 4.00	< 4.00	< 4.00	< 4.00	< 4.00	< 4.00	< 4.00	< 4.00	< 4.00	< 4.00	< 4.00	< 4.00
COC(=O)Cn1cc(C#Cc2ccc(N3C[C@H](CO)OC3=O)cc2F)cn1	< 4.00	4.21	< 4.00	< 4.00	< 4.00	4.28	4.05	4.44	< 4.00	< 4.00	< 4.00	< 4.00
CC(C)(C)OC(=O)N(CC#Cc1ccc(N2C[C@H](CO)OC2=O)cc1F)CC(=O)O	< 4.00	< 4.00	< 4.00	< 4.00	< 4.00	< 4.00	< 4.00	< 4.00	< 4.00	< 4.00	< 4.00	< 4.00
CC(C)(C)OC(=O)NC(CO)CC#Cc1ccc(N2C[C@H](CO)OC2=O)cc1F (stereo partly specified)	< 4.00	< 4.00	< 4.00	< 4.00	< 4.00	4.01	4.14	4.17	< 4.00	< 4.00	< 4.00	< 4.00
NC(=S)Nc1cccc(C#Cc2ccc(N3C[C@H](CO)OC3=O)cc2F)c1	< 4.00	< 4.00	< 4.00	< 4.00	< 4.00	< 4.00	4.07	4.19	< 4.00	< 4.00	< 4.00	< 4.00
O=C1O[C@@H](CO)CN1c1ccc(-c2ccc(SC(F)(F)F)cc2)c(F)c1	5.04	5.09	4.63	4.20	4.45	5.03	5.16	5.31	< 4.00	< 4.00	4.11	5.16
O=C1O[C@@H](CO)CN1c1ccc(-c2ccc3ccncc3c2)c(F)c1	< 4.00	< 4.00	< 4.00	< 4.00	< 4.00	< 4.00	< 4.00	< 4.00	< 4.00	< 4.00	< 4.00	7.00
O=C1O[C@@H](CO)CN1c1ccc(-c2cccc3cc[nH]c23)c(F)c1	4.19	4.21	< 4.00	< 4.00	4.11	4.71	4.67	5.14	< 4.00	< 4.00	< 4.00	< 4.00
O=C(O)CNCC#Cc1ccc(N2C[C@H](CO)OC2=O)cc1F	< 4.00	< 4.00	< 4.00	< 4.00	< 4.00	< 4.00	< 4.00	< 4.00	< 4.00	< 4.00	< 4.00	< 4.00
O=C1O[C@@H](CO)CN1c1ccc(-c2ccccn2)c(F)c1	< 4.00	< 4.00	< 4.00	< 4.00	< 4.00	< 4.00	4.11	4.10	< 4.00	< 4.00	4.19	4.32
O=C1O[C@@H](CO)CN1c1ccc(C#CCO)c(F)c1	< 4.00	< 4.00	< 4.00	< 4.00	< 4.00	< 4.00	4.08	4.36	< 4.00	< 4.00	< 4.00	< 4.00
CC[n+]1ccc(-c2ccc(N3C[C@H](CO)OC3=O)cc2F)cc1	< 4.00	4.41	< 4.00	< 4.00	4.36	4.44	4.86	4.80	< 4.00	< 4.00	4.24	4.37
CNC(=O)NCC#Cc1ccc(N2C[C@H](CO)OC2=O)cc1F	< 4.00	< 4.00	< 4.00	< 4.00	< 4.00	< 4.00	< 4.00	4.95	< 4.00	< 4.00	< 4.00	< 4.00
CCOC(=O)C(C)(C)CC#Cc1ccc(N2C[C@H](CO)OC2=O)cc1F	4.36	4.52	4.22	< 4.00	< 4.00	4.19	4.75	4.66	< 4.00	< 4.00	< 4.00	4.52
CC(O)c1ccc(OCC#Cc2ccc(N3C[C@H](CO)OC3=O)cc2F)cc1 (stereo partly specified)	4.21	4.46	< 4.00	< 4.00	4.20	4.61	4.52	4.87	< 4.00	< 4.00	< 4.00	4.04
Nc1cccc(C#Cc2ccc(N3C[C@H](CO)OC3=O)cc2F)n1	4.08	4.12	4.30	< 4.00	4.23	4.72	4.47	4.69	< 4.00	< 4.00	< 4.00	< 4.00

— ChEMBL document CHEMBL5104202, “Structure-Uptake Relationship Studies of Oxazolidinones in Gram-Negative ESKAPE Pathogens” (J Med Chem, 2022)
